The test relates to E. coli strain W3110. As to the kind of experiment: Synergy assays: Biolog chemical sensitivity panels with Group IB metal, coefficient of drug interaction (CDI) from relative growth. Format: cell-based. Particulars: for CDI (coefficient of drug interaction), copper mixed with biocide: Copper (mM) section; for CDI (coefficient of drug interaction), gold + biocide: Gold (μM).
Where [1] appears, read: 2nd of 3 copper concentrations (value not shown), 4th of four biocide concentrations.
Setting [2] is: Gold section of Table 5, first of three gold concentrations (μM, value not given), biocide concentration 1 of 4.
Where [3] appears, read: Gold section of Table 5, first of three gold concentrations (μM, value not given), biocide concentration 4 of 4.
[4] abbreviates: Gold section of Table 5, second of three gold concentrations (μM, value not given), biocide concentration 2 of 4.
[5] abbreviates: Gold section of Table 5, second of three gold concentrations (μM, value not given), biocide concentration 3 of 4.
Setting [6] is: Gold section of Table 5, second of three gold concentrations (μM, value not given), biocide concentration 4 of 4.
The mark [7] stands for this setting: Gold section of Table 5, third of three gold concentrations (μM, value not given), biocide concentration 1 of 4.
[8] abbreviates: Gold section of Table 5, third of three gold concentrations (μM, value not given), biocide concentration 2 of 4.
[9] abbreviates: Gold section of Table 5, third of three gold concentrations (μM, value not given), biocide concentration 3 of 4.
[10] abbreviates: Gold section of Table 5, third of three gold concentrations (μM, value not given), biocide concentration 4 of 4.
[11] abbreviates: Silver 0.5 μM, 4th of four biocide concentrations, E. coli.
[12] abbreviates: Silver 1.0 μM, 3rd of four biocide concentrations, E. coli.
Setting [13] is: Silver 1.0 μM, 4th of four biocide concentrations, E. coli.
Where [14] appears, read: Silver 5.0 μM, 3rd of four biocide concentrations, E. coli.
Where [15] appears, read: Silver 5.0 μM, 4th of four biocide concentrations, E. coli.
[16] abbreviates: Copper (mM), 1st of 3 copper concentrations (head line not shown), biocide concentration 3 of 4, E. coli.
The mark [17] stands for this setting: Copper (mM), 1st of 3 copper concentrations (head line not shown), biocide concentration 4 of 4, E. coli.
Setting [18] is: Copper (mM), 2nd of 3 copper concentrations (head line not shown), biocide concentration 3 of 4, E. coli.
The mark [19] stands for this setting: Copper (mM), 2nd of 3 copper concentrations (head line not shown), biocide concentration 4 of 4, E. coli.
Setting [20] is: Copper (mM), 3rd of 3 copper concentrations (head line not shown), biocide concentration 3 of 4, E. coli.
Setting [21] is: Copper (mM), 3rd of 3 copper concentrations (head line not shown), biocide concentration 4 of 4, E. coli.
The mark [22] stands for this setting: Silver 0.5 μM, biocide concentration 2 of 4.
Where [23] appears, read: Silver 0.5 μM, biocide concentration 3 of 4.
[24] abbreviates: Silver 0.5 μM, biocide concentration 4 of 4.
Setting [25] is: Silver 1.0 μM, biocide concentration 2 of 4.
Where [26] appears, read: Silver 1.0 μM, biocide concentration 3 of 4.
Setting [27] is: Silver 1.0 μM, biocide concentration 4 of 4.
Where [28] appears, read: Silver 5.0 μM, biocide concentration 2 of 4.
[29] abbreviates: Silver 5.0 μM, biocide concentration 3 of 4.
Where [30] appears, read: Silver 5.0 μM, biocide concentration 4 of 4.

This note sets out measurements from patent US11382328B2, “Rapid drug discovery methods for pathogen inactivation” (priority 2019, dated 2022).

Niaproof: the “CDI (coefficient of drug interaction), copper mixed with biocide” value (“CDI … with biocide” for short) came to 1.26 (1st of 3 copper concentrations (value not shown), 1st of four biocide concentrations); 1.45 (1st of 3 copper concentrations (value not shown), 2nd of four biocide concentrations); 0.74 (1st of 3 copper concentrations (value not shown), 3rd of four biocide concentrations); 0.91 (1st of 3 copper concentrations (value not shown), 4th of four biocide concentrations); 1.09 (2nd of 3 copper concentrations (value not shown), 1st of four biocide concentrations); 1.20 (2nd of 3 copper concentrations (value not shown), 2nd of four biocide concentrations). For the same compound, the “CDI … with biocide” value was determined as 0.43 (2nd of 3 copper concentrations (value not shown), 3rd of four biocide concentrations); 0.46 under setting [1]; 1.19 (3rd of 3 copper concentrations (value not shown), 1st of four biocide concentrations); 1.00 (3rd of 3 copper concentrations (value not shown), 2nd of four biocide concentrations); 0.73 (3rd of 3 copper concentrations (value not shown), 3rd of four biocide concentrations); 1.32 (3rd of 3 copper concentrations (value not shown), 4th of four biocide concentrations). The “CDI (coefficient of drug interaction)” value is, setting by setting: under setting [2], 1.32; under setting [3], 1.27; (Gold section of Table 5, second of three gold concentrations (μM, value not given), biocide concentration 1 of 4) 1.21; under setting [4], 1.03; under setting [5], 1.09; under setting [6], 1.15. Besides, the “CDI (coefficient of drug interaction)” value runs as follows: under setting [7], 1.35; under setting [8], 1.20; under setting [9], 0.95; under setting [10], 1.51. Also, the “CDI (coefficient of drug interaction), silver + biocide” value (shortened to “CDI … silver + biocide”) is, setting by setting: (Silver 0.5 μM, 1st of four biocide concentrations, E. coli) 1.07; (Silver 0.5 μM, 2nd of four biocide concentrations, E. coli) 1.17; under setting [11], 1.74; (Silver 1.0 μM, 2nd of four biocide concentrations, E. coli) 1.17; under setting [12], 0.99; under setting [13], 1.45. Moreover, the “CDI … silver + biocide” value (Silver 5.0 μM, 1st of four biocide concentrations, E. coli) came out at 0.89; the “CDI … silver + biocide” value (Silver 5.0 μM, 2nd of four biocide concentrations, E. coli) turned out to be 0.99; the “CDI … silver + biocide” value under setting [14] is reported as 0.78; the “CDI … silver + biocide” value under setting [15] stood at 0.55.

With spiramycin, the “CDI (coefficient of drug interaction)” value was 1.00 (Copper (mM), 1st of 3 copper concentrations (head line not shown), biocide concentration 1 of 4, E. coli); 0.94 under setting [16]; “Tox” under setting [17]; 0.89 (Copper (mM), 2nd of 3 copper concentrations (head line not shown), biocide concentration 1 of 4, E. coli); “Tox” (Copper (mM), 2nd of 3 copper concentrations (head line not shown), biocide concentration 2 of 4, E. coli); “Tox” under setting [18]. The “CDI (coefficient of drug interaction)” value reads like this: under setting [19], “Tox”; (Copper (mM), 3rd of 3 copper concentrations (head line not shown), biocide concentration 1 of 4, E. coli) 0.92; (Copper (mM), 3rd of 3 copper concentrations (head line not shown), biocide concentration 2 of 4, E. coli) 0.91; under setting [20], 3.40; under setting [21], “Tox”; under setting [2], 1.03. For the same compound, the “CDI (coefficient of drug interaction)” value (Gold section of Table 5, first of three gold concentrations (μM, value not given), biocide concentration 2 of 4) is listed as 1.00; the “CDI (coefficient of drug interaction)” value (Gold section of Table 5, first of three gold concentrations (μM, value not given), biocide concentration 3 of 4) is “Tox”; the “CDI (coefficient of drug interaction)” value under setting [3] is “Tox”; the “CDI (coefficient of drug interaction)” value under setting [4] was determined as 0.67; the “CDI (coefficient of drug interaction)” value under setting [5] was “Tox”; the “CDI (coefficient of drug interaction)” value under setting [6] is “Tox”. In addition, the “CDI (coefficient of drug interaction)” value under setting [7] is reported as 0.84, the “CDI (coefficient of drug interaction)” value under setting [8] is recorded as 0.33, the “CDI (coefficient of drug interaction)” value under setting [9] is “Tox” and the “CDI (coefficient of drug interaction)” value under setting [10] is on record as “Tox”. For the same compound, the CDI runs as follows: (Silver 0.5 μM, biocide concentration 1 of 4) 0.83; under setting [22], “Tox”; under setting [23], “Tox”; under setting [24], “Tox”; (Silver 1.0 μM, biocide concentration 1 of 4) 0.96; under setting [25], “Tox”. Further, the CDI result is on record as “Tox” under setting [26]; “Tox” under setting [27]; 0.83 (Silver 5.0 μM, biocide concentration 1 of 4); “Tox” under setting [28]; “Tox” under setting [29]; “Tox” under setting [30].

`Cl.N[C@@H](CCl)C(=O)O` [β-Chloro-L-alanine HCl, β-chloro-L-alanine hydrochloride]: the CDI entry was “Tox” under setting [23]; “Tox” under setting [24]; “Tox” under setting [26]; “Tox” under setting [27]; “Tox” under setting [29]; “Tox” under setting [30].

Consider `CC1=C(C(=O)Nc2ccccc2)S(=O)(=O)CCO1` [Oxycarboxin], for which the “CDI (coefficient of drug interaction)” value under setting [16] was “Tox”; the “CDI (coefficient of drug interaction)” value under setting [17] is “Tox”; the “CDI (coefficient of drug interaction)” value under setting [18] was “Tox”; the “CDI (coefficient of drug interaction)” value under setting [19] is “Tox”; the “CDI (coefficient of drug interaction)” value under setting [20] is on record as “Tox”; the “CDI (coefficient of drug interaction)” value under setting [21] is “Tox”. Besides, the “CDI (coefficient of drug interaction), gold + biocide” value (“CDI … gold + biocide” below) is on record as “Tox” (first of 3 gold concentrations, biocide concentration 2 of 4); “Tox” (first of 3 gold concentrations, biocide concentration 3 of 4); “Tox” (first of 3 gold concentrations, biocide concentration 4 of 4); “Tox” (second of 3 gold concentrations, biocide concentration 2 of 4); “Tox” (second of 3 gold concentrations, biocide concentration 3 of 4); “Tox” (second of 3 gold concentrations, biocide concentration 4 of 4). Besides, the “CDI … gold + biocide” value (third of 3 gold concentrations, biocide concentration 2 of 4) was “Tox”; the “CDI … gold + biocide” value (third of 3 gold concentrations, biocide concentration 3 of 4) is reported as “Tox”; the “CDI … gold + biocide” value (third of 3 gold concentrations, biocide concentration 4 of 4) was “Tox”. For the same compound, the CDI result is, setting by setting: under setting [22], “Tox”; under setting [23], “Tox”; under setting [24], “Tox”; under setting [25], “Tox”; under setting [26], “Tox”; under setting [27], “Tox”. Also, the CDI result was “Tox” under setting [28], “Tox” under setting [29] and “Tox” under setting [30].

In the case of `NNC(N)=O` [semicarbazide], the “CDI … with biocide” value under setting [1] is “Tox”. Also, the “CDI … silver + biocide” value runs as follows: (Silver 0.5 μM, 3rd of four biocide concentrations, E. coli) “Tox”; under setting [11], “Tox”; under setting [12], “Tox”; under setting [13], “Tox”; under setting [14], “Tox”; under setting [15], “Tox”.
